# Results published in PMC11784839, “Monoaminergic neurotransmitters are bimodal effectors of tau aggregation” (Science Advances, 2025).
# Molecular target: tau (Homo sapiens, UniProt P10636)
# Test: MCE Phenols Library screening, tau biosensor cell seeding assay (AvZ)
# Type: cell-based
# Conditions: for Z repl 1 / Z Repl 2: Z score; for Z repl 1 / raw data 1: replicate 1; for Z Repl 2 / raw data 2: replicate 2; for AvZ (average z score of seeding, SDs from the mean level of seeding): 10 μM phenol in cell cultures, AD brain homogenate preincubated 16 hours, two biological replicates, positive = catalyzes seeding, negative = inhibits
# [1] = average Z score of two replicates, Phenols Library screen
# [2] = average Z score of the two replicates, MCE Phenols Library screen
# [3] = average puncta of the two replicates
# [4] = average Z score of the two replicates, tau seeding
# Sequence of tau (P10636 623-695 limits assumed): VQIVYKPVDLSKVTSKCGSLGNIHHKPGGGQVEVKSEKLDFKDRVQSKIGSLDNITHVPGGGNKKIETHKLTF
Z repl 1,Z Repl 2,av Z [1],av puncta (average of raw data 1 and 2),raw data 1 (puncta),raw data 2 (puncta),av Z [2],av puncta [3],raw data 1 (raw puncta),raw data 2 (raw puncta),"AvZ (average z score of seeding, SDs from the mean level of seeding)",av Z [4],Structure (SMILES)
-0.364,0.129,-0.118,18059,21978.8,14139.2,,,,,,,CC(=O)c1c(C)cc2cccc(O)c2c1O [Nepodin]
-0.55,-0.108,,,,,-0.329,15677.7,19746.6,11608.9,,,COc1ccc(-c2cc(=O)c3c(O)c(OC)c(O)c(OC)c3o2)cc1 [Nevadensin]
-0.326,0.012,-0.157,17666.9,22434.9,12898.9,,,,,,,CC(Cc1ccc(O)c(O)c1)C(C)Cc1ccc(O)c(O)c1 (stereo not drawn) [Nordihydroguaiaretic acid]
-0.363,-0.457,,,,,-0.41,14938,21994.8,7881.17,,,Cc1cc(=O)c2c(O)cc(O)cc2o1 [Noreugenin]
0.56,0.239,,24195.2,33071.8,15318.5,,,,,0.399,,CC(C)(O)CCc1c(O)cc(O)c2c(=O)c(O)c(-c3ccc(O)cc3)oc12 [Noricaritin]
-0.236,-0.647,,,,,-0.441,14688.3,23518.4,5858.11,,,O=c1c2c(O)cc(O)cc2oc2c(O)ccc(O[C@@H]3O[C@H](CO)[C@@H](O)[C@H](O)[C@H]3O)c12 [Norswertianolin]
-0.966,-0.652,,10276.7,14754.3,5799.06,-0.809,,,,,,O=c1cc(-c2ccccc2)oc2c(O)c(O)cc(O)c12 [Norwogonin]
0.135,-0.221,-0.043,19189.1,27969,10409.2,,,,,,,CC(C(=O)c1ccc(O)cc1O)c1ccc(O)cc1 (stereo not drawn) [O-Desmethylangolensin]
-0.23,0.069,-0.081,18542,23582.4,13501.7,,,,,,,COc1c(O)c(C)cc2c1C(=O)c1c(O)cccc1C2=O [Obtusifolin]
-0.991,-0.213,,,14447.4,10495.4,-0.602,12471.4,,,,,C[C@@H]1CC(=O)c2c(ccc3c2C(=O)c2cccc(O)c2C3=O)C1 [Ochromycinone]
-0.643,0.033,,,,,-0.305,15871.9,18628.3,13115.6,,,COc1cc(CCC(O)CC(O)CCc2ccc(O)c(OC)c2)ccc1O (stereo not drawn) [Octahydrocurcumin]
-1.882,-1.187,,1923.27,3755.83,90.703,-1.534,,,,,,O=C(/C=C/c1ccc(O)c(O)c1)c1ccc(O)c(O)c1O [Okanin]
-0.169,0.358,0.095,20456.3,24324.1,16588.6,,,,,,,COc1ccc(CC(=O)c2ccc(O)cc2O)cc1 [Ononetin]
-1.362,-0.316,,9697.38,9999.31,9395.45,,,,,-0.839,,Cc1cc(O)cc(O)c1 [Orcinol]
-0.164,-0.982,,,24381.7,2282.35,-0.573,13332,,,,,O=c1cc(-c2ccccc2)oc2cc(O[C@@H]3O[C@H](CO[C@@H]4O[C@H](CO)[C@@H](O)[C@H](O)[C@H]4O)[C@@H](O)[C@H](O)[C@H]3O)c(O)c(O)c12 [Oroxin B]
-0.296,0.55,,20714.9,22792.7,18637,,,,,,0.127,COc1c(O[C@@H]2O[C@H](C(=O)O)[C@@H](O)[C@H](O)[C@H]2O)cc2oc(-c3ccccc3)cc(=O)c2c1O [Oroxylin A-7-O-glucuronide]
-0.11,-0.323,,,,,-0.217,17171.6,25029.5,9313.67,,,COc1c(O)cc2oc(-c3ccccc3)cc(=O)c2c1O [Oroxylin A]
-0.859,0.047,,,,,-0.406,14655.6,16039.6,13271.6,,,OC[C@H]1O[C@@H](Oc2cc(O)ccc2/C=C/c2cc(O)cc(O)c2)[C@H](O)[C@@H](O)[C@@H]1O [Oxyresveratrol 2-O-?-D-glucopyranoside]
0.101,0.444,,22534.1,27565,17503.1,,,,,0.272,,COc1ccc(C(C)=O)c(O)c1 [Paeonol]
0.462,0.318,,24029.7,31895.3,16164,,,,,,0.39,O=C(O)CC(O)(CC(=O)OCc1ccc(O[C@@H]2O[C@H](CO)[C@@H](O)[C@H](O)[C@H]2O)cc1)C(=O)OCc1ccc(O[C@@H]2O[C@H](CO)[C@@H](O)[C@H](O)[C@H]2O)cc1 (stereo partly drawn) [Parishin B]
-1.04,-0.216,,,13862,10454.8,-0.628,12158.4,,,,,O=C(O)CC(O)(CC(=O)OCc1ccc(O[C@@H]2O[C@H](CO)[C@@H](O)[C@H](O)[C@H]2O)cc1)C(=O)O (stereo partly drawn) [Parishin E]
-0.106,0.876,,23601.4,25077.3,22125.4,,,,,,0.385,COc1ccc(-c2cc(=O)c3c(O)c(OC)c(O)cc3o2)cc1 [Pectolinarigenin]
0.677,-0.144,,22850.6,34472.8,11228.4,,,,,,0.266,COc1ccc(-c2cc(=O)c3c(O)c(OC)c(O[C@@H]4O[C@H](CO[C@@H]5O[C@@H](C)[C@H](O)[C@@H](O)[C@H]5O)[C@@H](O)[C@H](O)[C@H]4O)cc3o2)cc1 [Pectolinarin]
-0.056,-0.658,,,,,-0.357,15704.2,25674.3,5734.06,,,O=C(O)Cc1cc(O)ccc1O[C@@H]1O[C@H](CO)[C@@H](O)[C@H](O)[C@H]1O [Phaseoloidin]
-0.297,-0.278,,,,,-0.288,16285.7,22779.3,9792.07,,,O=C(CCc1ccc(O)cc1)c1c(O)cc(O)cc1O[C@@H]1O[C@H](CO)[C@@H](O)[C@H](O)[C@H]1O [Phlorizin]
0.407,0.408,,24178.5,31229.6,17127.3,,,,,,0.407,OC[C@H]1O[C@@H](Oc2cc(/C=C/c3cc(O)cc(O)c3)ccc2O)[C@H](O)[C@@H](O)[C@@H]1O [Piceatannol 3'-O-glucoside]

Structure (SMILES),Z repl 1,Z Repl 2,av Z [1],av puncta (average of raw data 1 and 2),raw data 1 (puncta),raw data 2 (puncta),av Z [2],av puncta [3],raw data 1 (raw puncta),raw data 2 (raw puncta),"AvZ (average z score of seeding, SDs from the mean level of seeding)",av Z [4]
O=C1O[C@@H]2[C@@H](O)[C@H](O)[C@@H](CO)O[C@H]2c2c1cc(O)c(O)c2O [Norbergenin],-0.528,0.442,-0.043,18743.5,20005.8,17481.2,,,,,,
COc1cc(CNC(=O)CCCCCC(C)C)ccc1O [Nordihydrocapsaicin],-0.001,-0.682,,,,,,15905.5,26333.1,5477.91,-0.342,
Cl.NCC(O)c1ccc(O)cc1 (stereo not drawn) [Octopamine (hydrochloride)],-0.187,0.177,,19376.3,24099.8,14652.9,,,,,-0.005,
O=c1cc(-c2ccc(O)c(O)c2)oc2c([C@@H]3O[C@H](CO)[C@@H](O)[C@H](O)[C@H]3O)c(O)cc(O)c12 [Orientin],0.558,-0.368,0.095,20945,33050.1,8839.87,,,,,,
Oc1cc(O)cc(/C=C/c2ccc(O)cc2O)c1 [Oxyresveratrol],0.048,-0.792,,,,,-0.372,15614.1,26923.9,4304.18,,
COc1cc2c(cc1O)C[C@H]1c3cc(O)c(OC)cc3CC[N@@+]1(C)C2.[Cl-] [Phellodendrine (chloride)],0.263,-0.68,,,,,-0.208,17505.3,29504.3,5506.25,,
O=C(CCc1ccc(O)cc1)c1c(O)cc(O)cc1O [Phloretin],-0.858,-0.477,,,16053.8,7668.02,-0.667,11860.9,,,,
